Test results reported in patent US20250161476A1 (REGENERON PHARMACEUTICALS, INC., priority 2020, published 2025).

Tests used:
[1] = Liver microsome stability (intrinsic clearance); type: in vitro ADME; conditions: microsomes
Procedure: To assess the in vitro ADME properties of the LP, microsomal stability assay was performed to determine intrinsic clearance, and plasma protein binding assay was performed to understand the distribution potential.

[2] = target: human gastric inhibitory polypeptide receptor (GIPR) (Homo sapiens (Human), UniProt P48546); assay: CRE-luciferase reporter bioassay, HEK293/Myc-hGIPR/Cre-Luc cell line; type: cell-based
Chain of human gastric inhibitory polypeptide receptor (GIPR) (P48546 22-466): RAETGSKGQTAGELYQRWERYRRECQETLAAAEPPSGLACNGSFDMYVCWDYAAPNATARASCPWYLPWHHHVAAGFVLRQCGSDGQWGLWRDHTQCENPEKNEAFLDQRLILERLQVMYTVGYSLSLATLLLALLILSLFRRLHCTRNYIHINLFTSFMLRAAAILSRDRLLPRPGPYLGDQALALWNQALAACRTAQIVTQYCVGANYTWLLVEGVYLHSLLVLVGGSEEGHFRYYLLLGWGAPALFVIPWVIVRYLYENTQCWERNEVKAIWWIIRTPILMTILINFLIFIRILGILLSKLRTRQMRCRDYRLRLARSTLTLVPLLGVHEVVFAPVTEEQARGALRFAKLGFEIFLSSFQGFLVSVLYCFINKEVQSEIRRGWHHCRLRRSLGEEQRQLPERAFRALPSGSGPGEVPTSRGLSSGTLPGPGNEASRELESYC
Procedure: (§4) Cells were incubated overnight at 37° C. in 5% CO2. […] Plates were incubated for 5.5 h at 37° C. in 5% CO2. For end-point measurement, 100 μL/well of One-Glo reagent (Promega, #E6051) was added and plates were kept at room temperature for 5-10 minutes. Luciferase activity was measured on Envision Multilabel Plate Reader (Perkin Elmer) in Luminescent mode. The relative light units (RLU) values were obtained and the results were analyzed using nonlinear regression with GraphPad Prism software (GraphPad).

[3] = Plasma stability of payloads and linker-payloads, monkey plasma; type: in vitro ADME; conditions: assay time 3 days
Procedure: (§1) The plasma stability of payloads and linker payloads of the disclosure were measured. For the assay, pooled frozen plasma (human, mouse or monkey) was thawed in cold water or a 37° C. water bath prior to experiment. Plasma was centrifuged at 4000 rpm for 5 min if any clots were observed, they were subsequently removed. If required, the pH was adjusted to 7.4±0.1. For the preparation of compounds and positive controls, a 1 mM intermediate solution was prepared by diluting 10 μL of their stock solution with 90 μL DMSO; a 1 mM intermediate solution of the positive control (Propantheline) was prepared by diluting 10 μL of its stock solution with 90 μL ultrapure water. Subsequently, 100 μM dosing solution for each compound was prepared by diluting 20 μL of the intermediate solution (1 mM) with 180 μL 45% MeOH/H2O. 98 μL of plasma was spiked with 2 μL of dosing solution (100 μM) to achieve the final concentration of 2 μM in duplicate. Samples were then incubated at 37° C. in a water bath. […] At each time point, 400 μL of stop solution (200 ng/mL tolbutamide plus 200 ng/mL labetalol in 50% ACN/MeOH) was added to precipitate protein and mixed thoroughly. Sample plates were then centrifuged at 4,000 rpm for 10 min. An aliquot of supernatant (50 μL) was transferred from each well and mixed with 100 μL ultra-pure water. […]

[4] = target: human glucagon receptor (GCGR) (Homo sapiens (Human), UniProt P47871); assay: CRE-luciferase reporter bioassay, HEK293/Myc-hGCGR/Cre-Luc cell line; type: cell-based
Chain of human glucagon receptor (GCGR) (P47871 26-477): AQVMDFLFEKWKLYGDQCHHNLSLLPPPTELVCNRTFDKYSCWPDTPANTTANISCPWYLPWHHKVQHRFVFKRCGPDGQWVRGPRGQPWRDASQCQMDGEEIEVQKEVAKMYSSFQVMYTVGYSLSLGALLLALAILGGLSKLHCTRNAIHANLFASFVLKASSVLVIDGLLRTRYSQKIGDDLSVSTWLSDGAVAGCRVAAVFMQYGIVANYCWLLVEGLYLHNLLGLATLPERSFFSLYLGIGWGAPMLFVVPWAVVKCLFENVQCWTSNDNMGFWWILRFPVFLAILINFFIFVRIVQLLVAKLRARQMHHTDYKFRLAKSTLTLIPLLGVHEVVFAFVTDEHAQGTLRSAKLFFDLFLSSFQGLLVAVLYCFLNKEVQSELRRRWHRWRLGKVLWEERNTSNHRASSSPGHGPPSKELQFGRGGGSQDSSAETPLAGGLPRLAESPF
Procedure: as §4

HEK293/CRE-Luc cells = assay: cAMP responsive luciferase reporter assay, HEK293/CRE-Luc cells (no hGLP1R expression); type: cell-based, human
From the text: (§2) To test the activity of GLP1R agonist payloads, GLP1R agonist linker-payloads (LPs), and anti-GLP1R antibody tethered drug conjugates (ATDCs) of the disclosure, a cell-based cAMP responsive luciferase reporter assay was developed. To generate the assay cell line, the firefly luciferase gene was placed under the control of a cAMP response element (CRE) located upstream of a minimal promoter and transfected into HEK293 cells and referred to herein as HEK293/CRE-Luc cells.
(§3) Three-fold serial dilutions of free payloads or LPs were prepared in 100% DMSO, transferred to fresh assay media, and added to the cells at a final constant DMSO concentration of 0.2%. The last well in the plate served as a blank control containing only the assay media and 0.2% DMSO (untreated well) and was plotted as a continuation of the 3-fold serial dilution. Four to six hours later, luciferase activity was determined after the addition of One-Glo™ reagent (Promega, Cat #E6130) to each well. Relative light units (RLUs) were measured on an Envision luminometer (PerkinElmer) and EC50 values were determined using a four-parameter logistic equation over a 12-point dose response curve (GraphPad Prism). The signal to noise (S/N) was determined by taking the ratio of the highest RLU on the dose response curve to the RLU in the untreated wells.

[5] = target: human glucagon-like peptide 2 receptor (GLP2R) (Homo sapiens (Human), UniProt O95838); assay: CRE-luciferase reporter bioassay, HEK293/Myc-hGLP2R/Cre-Luc cell line; type: cell-based; conditions: GLP2R
Chain of human glucagon-like peptide 2 receptor (GLP2R) (O95838 whole entry): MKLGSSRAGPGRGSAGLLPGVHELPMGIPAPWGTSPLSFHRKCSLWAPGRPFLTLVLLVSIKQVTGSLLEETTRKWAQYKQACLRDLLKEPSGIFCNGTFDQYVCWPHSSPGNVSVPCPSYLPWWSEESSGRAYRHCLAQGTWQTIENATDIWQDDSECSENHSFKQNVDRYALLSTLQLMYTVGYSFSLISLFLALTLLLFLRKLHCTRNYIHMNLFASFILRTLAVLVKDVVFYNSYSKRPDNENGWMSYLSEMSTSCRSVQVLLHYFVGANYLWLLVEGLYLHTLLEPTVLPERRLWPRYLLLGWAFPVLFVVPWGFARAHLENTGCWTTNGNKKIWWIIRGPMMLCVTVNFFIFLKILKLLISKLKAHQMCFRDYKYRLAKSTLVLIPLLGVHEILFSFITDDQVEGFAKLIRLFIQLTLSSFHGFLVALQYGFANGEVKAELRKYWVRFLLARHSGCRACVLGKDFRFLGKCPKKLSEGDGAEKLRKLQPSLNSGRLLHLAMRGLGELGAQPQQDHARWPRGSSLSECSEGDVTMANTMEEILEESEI
Procedure: as §4

[6] = Plasma stability of payloads and linker-payloads, mouse plasma; type: in vitro ADME; conditions: assay time 3 days
Procedure: as §1

[7] = test system: Salmonella typhimurium TA98 and TA100; assay: Mini-Ames reverse mutation assay with and without S9 mix; type: cell-based
Procedure: The objective of this Mini-Ames study was to evaluate the test article LP11, for its ability to induce reverse mutations in the genome of strains of Salmonella typhimurium TA98 and TA100 in the presence and absence of metabolic activation (S9 mixture).
The Mini-Ames assay was conducted for the test article in the presence and absence of the S9 mixture, concurrently with the negative/solvent control (DMSO) using six wells and positive controls (2 μg/well TA98 alone, 0.2 μg/well TA100 alone or 0.4 μg/well TA98+TA100 in the presence of S9) using three wells. The tested dose levels for the test article, in the presence and absence of S9 mix, were 1000, 400, 160, 64, 25, 10, 4, and 1.5 μg per well, with each dose tested in triplicate. The study was conducted using fresh cultures of the bacterial strains and fresh test article formulations.

human GLP1R = human GLP1R (Homo sapiens (Human), UniProt P43220); assay: cAMP responsive luciferase reporter assay, HEK293/CRE-Luc/hGLP1R cells; type: cell-based
Chain of human GLP1R (P43220 24-463): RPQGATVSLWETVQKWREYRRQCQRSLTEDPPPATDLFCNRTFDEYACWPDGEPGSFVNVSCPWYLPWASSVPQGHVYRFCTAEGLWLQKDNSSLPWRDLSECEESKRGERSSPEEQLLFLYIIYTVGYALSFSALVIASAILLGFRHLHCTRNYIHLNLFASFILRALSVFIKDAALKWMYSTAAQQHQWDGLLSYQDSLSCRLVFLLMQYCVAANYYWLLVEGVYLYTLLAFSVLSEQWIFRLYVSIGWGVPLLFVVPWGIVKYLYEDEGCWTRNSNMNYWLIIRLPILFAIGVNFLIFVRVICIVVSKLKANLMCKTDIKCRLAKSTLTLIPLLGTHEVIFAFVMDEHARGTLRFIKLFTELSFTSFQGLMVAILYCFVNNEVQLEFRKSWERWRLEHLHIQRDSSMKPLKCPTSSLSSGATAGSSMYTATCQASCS
From the text: as §2, §3
GLP1R agonist linker payloads were conjugated to anti-hGLP1R antibodies via N-terminal heavy or light chain Q tags. Several resulting anti-GLP1R antibody tethered drug conjugates (ATDCs) were tested for activity in the HEK293/CRE-Luc/hGLP1R reporter assay as described above for the free GLP1R payload and linker-payload agonists.

[8] = human, 4 h, 2 µM
Procedure: An assay was performed to determine the plasma protein binding of compounds of the disclosure. For the assay, on the day of experiment, the plasma was thawed in cold water and centrifuged at 3220 rpm for 5 minutes to remove any clots. The pH value of the resulting plasma was checked
For the dialysis, the test compound and control compound were dissolved in DMSO to achieve 10 mM stock solutions. DMSO working solutions were prepared at 400 μM. To prepare the loading matrix, compound working solutions (5 μL) were added in a 1:200 ratio to blank matrix (995 μL) and mixed thoroughly. To prepare the time zero (TO) samples to be used for recovery determination, 50 μL aliquots of loading matrix were transferred in triplicate to the sample collection plate. The samples were immediately matched with opposite blank buffer to obtain a final volume of 100 μL of 1:1 matrix/dialysis buffer (v/v) in each well. 500 μL of stop solution were added to these TO samples. This was then stored at 2-8° C. pending further processes along with other post-dialysis samples. To load the dialysis device, an aliquot of 150 μL of the loading matrix was transferred to the donor side of each dialysis well in triplicate, and 150 μL of the dialysis buffer was loaded to the receiver side of the well. […]
The percent unbound, percent bound, and percent recovery values were calculated using the following equations: […]

[9] = relative to P8 of the same experiment

CCc1cc(OCCCCn2cc(COCCOCCOCCOCCOCCOCCOCCOCCN)nn2)ccc1-c1ccc(C[C@H](NC(=O)[C@H](CC(=O)O)NC(=O)[C@H](CO)NC(=O)[C@@H](NC(=O)C(C)(Cc2ccccc2F)NC(=O)[C@@H](NC(=O)CNC(=O)[C@H](Cc2nn[nH]n2)NC(=O)C(C)(C)C(=O)NCCc2cnc[nH]2)[C@@H](C)O)[C@@H](C)O)C(=O)N[C@@H](CCCc2cc(C)cc(C)c2)C(N)=O)cc1 (some centres unmarked) [LP11, NH2-PEG8-triazole-P8]
CLint(liver) [1]: <8.6 mL/min/kg | T1/2 [1]: >2.42 h | GLP2R, GIPR, or GCGR EC50 [2]: Completely inactive | plasma stability T½ [3]: >49.4 h | GLP2R, GIPR, or GCGR EC50 [4]: Completely inactive | EC50 (HEK293/CRE-Luc cells): > 200 nM | HEK293/CRE-LUC S/N (HEK293/CRE-Luc cells): 1.3 | GLP2R, GIPR, or GCGR EC50 [5]: Completely inactive | plasma stability T½ [6]: >140 h | cytotoxicity in tester strains ([7]; 1.5-1000 μg per well, with or without S9 mix): no obvious cytotoxicity | mutagenicity ([7]; Mini-Ames conclusion): negative for mutagenicity | Ames (TA98 and TA100) in the presence and absence of S9 ([7]; TA98 and TA100, with and without S9): Negative for | increase in the mean number of revertant colonies relative to negative/solvent control ([7]; TA98 or TA100, any dose level, presence or absence of S9 mix): ≤ 2.0 fold | HEK293/CRE-LUC/hGLP1R S/N (human GLP1R; highest RLU / RLU of untreated wells): 74.5 | HEK293/CRE-LUC/hGLP1R Relative Potency (% P8 EC50) (human GLP1R; [9]): 33.1% | HEK293/CRE-LUC/hGLP1R Relative Signal:Noise (% P8) (human GLP1R; [9]): 113.3% | % Recovery [8]: 89.2%
